Measurements reported in patent US12297235B2, “Synthetic peptide compounds and methods of use” (REALTA HOLDINGS, LLC, priority 2015, dated 2025).
Like-named read-outs stand apart in the source and are kept apart here. Square brackets hold non-standard residues; d marks the D form. Peptide text beside a SMILES is read from it. Sar = CNCC(=O)O

Tests used:
[1] = type: biochemical, human; details: 0.77 mM peptide in factor B-depleted serum
Description: Peptides were diluted to 0.77 mM in factor B-depleted human sera (Complement Technologies, Inc.) and incubated for 1 hour at 37° C. These peptides were then diluted with GVBS^++ to equal 2.5% serum, of which 0.25 ml was combined with 0.4 ml of GVBS^++ and 0.1 ml of sensitized sheep red blood cells (RBCs) and again incubated for 1 hour at 37° C. The procedure was stopped by the addition of 4.0 ml of GVBS^−− centrifuged for 5 minutes at 1,620×g, and the absorbance of the supernatants was read at 412 nm in a spectrophotometer. The percent lysis of each sample was standardized to that of the serum only control.
The final concentration of peptide in factor B-depleted serum was 0.77 mM. Each peptide was evaluated in triplicate and the mean values are reported. […] In the hemolytic assay, soluble peptides are standardized to water and insoluble peptides standardized to DMSO.
Polar Assortant peptides were serially diluted in undiluted factor B-depleted human sera (Complement Technologies, Inc.) and incubated for 1 hour at 37° C. Water, GVBS^++ and DMSO were included as controls. These peptides were then diluted with GVBS^++ to equal 2.5% serum, of which 0.25 ml was combined with 0.4 ml of GVBS^++ and 0.1 ml of sensitized sheep red blood cells (RBCs) and again incubated for 1 hour at 37° C. The procedure was stopped by the addition of 4.0 ml of GVBS^−−, centrifuged for 5 minutes at 1,620×g, and the absorbance of the supernatants was read at 412 nm in a spectrophotometer. The percent lysis of each sample was standardized to that of the serum only control.
The final concentration of peptide in factor B-depleted serum was 0.77 mM. […] In the hemolytic assay, soluble peptides were standardized to water and insoluble peptides standardized to DMSO.
The final concentration of peptide in factor B-depleted serum was 0.77 mM. […] In the hemolytic assay, soluble peptides are standardized to water and insoluble peptides standardized to DMSO.

[2] = Solubility in water; type: physicochemical; details: Table 7, PEGylated and Sar/Ala substitution peptides
[3] = standardized to water or DMSO, Table 6

`CC[C@H](C)[C@H](N)C(=O)N[C@@H](C)C(=O)N[C@@H](CC(C)C)C(=O)N[C@H](C(=O)N[C@@H](CC(C)C)C(=O)N[C@@H](CCC(=O)O)C(=O)N1CCC[C@H]1C(=O)N[C@H](C(=O)N[C@@H](CS)C(=O)N[C@@H](CS)C(=O)N[C@@H](CCC(N)=O)C(=O)N[C@@H](CCC(=O)O)C(=O)N[C@@H](CCCNC(=N)N)C(=O)N[C@@H](C)C(=O)N[C@@H](C)C(=O)NCCOCCOCCC(=O)O)[C@@H](C)CC)[C@@H](C)CC` [PA-dPEG02] gave a hemolysis [1, 3] of 11.6%.

Molecule `CC[C@H](C)[C@H](N)C(=O)N[C@@H](C)C(=O)N[C@@H](CC(C)C)C(=O)N[C@H](C(=O)N[C@@H](CC(C)C)C(=O)N[C@@H](CCC(=O)O)C(=O)N1CCC[C@H]1C(=O)N[C@H](C(=O)N[C@@H](CS)C(=O)N[C@@H](CS)C(=O)N[C@@H](CCC(N)=O)C(=O)N[C@@H](CCC(=O)O)C(=O)N[C@@H](CCCNC(=N)N)C(=O)N[C@@H](C)C(=O)N[C@@H](C)C(=O)NCCOCCOCCOCCC(=O)O)[C@@H](C)CC)[C@@H](C)CC` [PA-dPEG03] has a hemolysis [1, 3] of 12.6%.

`CC[C@H](C)[C@H](N)C(=O)N[C@@H](C)C(=O)N[C@@H](CC(C)C)C(=O)N[C@H](C(=O)N[C@@H](CC(C)C)C(=O)N[C@@H](CCC(=O)O)C(=O)N1CCC[C@H]1C(=O)N[C@H](C(=O)N[C@@H](CS)C(=O)N[C@@H](CS)C(=O)N[C@@H](CCC(N)=O)C(=O)N[C@@H](CCC(=O)O)C(=O)N[C@@H](CCCNC(=N)N)C(=O)N[C@@H](C)C(=O)N[C@@H](C)C(=O)NCCOCCOCCOCCOCCC(=O)O)[C@@H](C)CC)[C@@H](C)CC` [PA-dPEG04] showed a hemolysis [1, 3] of 12.4%.

For `CC[C@H](C)[C@H](N)C(=O)N[C@@H](C)C(=O)N[C@@H](CC(C)C)C(=O)N[C@H](C(=O)N[C@@H](CC(C)C)C(=O)N[C@@H](CCC(=O)O)C(=O)N1CCC[C@H]1C(=O)N[C@H](C(=O)N[C@@H](CS)C(=O)N[C@@H](CS)C(=O)N[C@@H](CCC(N)=O)C(=O)N[C@@H](CCC(=O)O)C(=O)N[C@@H](CCCNC(=N)N)C(=O)N[C@@H](C)C(=O)N[C@@H](C)C(=O)NCCOCCOCCOCCOCCOCCOCCC(=O)O)[C@@H](C)CC)[C@@H](C)CC` [PA-dPEG06], the hemolysis [1, 3] was 44.8%.

Molecule `CC[C@H](C)[C@H](N)C(=O)N[C@@H](C)C(=O)N[C@@H](CC(C)C)C(=O)N[C@H](C(=O)N[C@@H](CC(C)C)C(=O)N[C@@H](CCC(=O)O)C(=O)N1CCC[C@H]1C(=O)N[C@H](C(=O)N[C@@H](CS)C(=O)N[C@@H](CS)C(=O)N[C@@H](CCC(N)=O)C(=O)N[C@@H](CCC(=O)O)C(=O)N[C@@H](CCCNC(=N)N)C(=O)N[C@@H](C)C(=O)N[C@@H](C)C(=O)NCCOCCOCCOCCOCCOCCOCCOCCOCCC(=O)O)[C@@H](C)CC)[C@@H](C)CC` [PA-dPEG08] has a hemolysis [1, 3] of 34.7%.

Molecule `CC[C@H](C)[C@H](N)C(=O)N[C@@H](C)C(=O)N[C@@H](CC(C)C)C(=O)N[C@H](C(=O)N[C@@H](CC(C)C)C(=O)N[C@@H](CCC(=O)O)C(=O)N1CCC[C@H]1C(=O)N[C@H](C(=O)N[C@@H](CS)C(=O)N[C@@H](CS)C(=O)N[C@@H](CCC(N)=O)C(=O)N[C@@H](CCC(=O)O)C(=O)N[C@@H](CCCNC(=N)N)C(=O)N[C@@H](C)C(=O)N[C@@H](C)C(=O)NCCOCCOCCOCCOCCOCCOCCOCCOCCOCCOCCOCCOCCC(=O)O)[C@@H](C)CC)[C@@H](C)CC` [PA-dPEG12] has a hemolysis [1, 3] of 11.4%.

In the case of `CC[C@H](C)[C@H](N)C(=O)N[C@@H](C)C(=O)N[C@@H](CC(C)C)C(=O)N[C@H](C(=O)N[C@@H](CC(C)C)C(=O)N[C@@H](CCC(=O)O)C(=O)N1CCC[C@H]1C(=O)N[C@H](C(=O)N[C@@H](CS)C(=O)N[C@@H](CS)C(=O)N[C@@H](CCC(N)=O)C(=O)N[C@@H](CCC(=O)O)C(=O)N[C@@H](CCCNC(=N)N)C(=O)N[C@@H](C)C(=O)N[C@@H](C)C(=O)NCCOCCOCCOCCOCCOCCOCCOCCOCCOCCOCCOCCOCCOCCOCCOCCOCCC(=O)O)[C@@H](C)CC)[C@@H](C)CC` [PA-dPEG16], the hemolysis [1, 3] was 12%.

With `CC[C@H](C)[C@H](N)C(=O)N[C@@H](C)C(=O)N[C@@H](CC(C)C)C(=O)N[C@H](C(=O)N[C@@H](CC(C)C)C(=O)N[C@@H](CCC(=O)O)C(=O)N1CCC[C@H]1C(=O)N[C@H](C(=O)N[C@@H](CS)C(=O)N[C@@H](CS)C(=O)N[C@@H](CCC(N)=O)C(=O)N[C@@H](CCC(=O)O)C(=O)N[C@@H](CCCNC(=N)N)C(=O)N[C@@H](C)C(=O)N[C@@H](C)C(=O)NCCOCCOCCOCCOCCOCCOCCOCCOCCOCCOCCOCCOCCOCCOCCOCCOCCOCCOCCOCCOCCC(=O)O)[C@@H](C)CC)[C@@H](C)CC` [PA-dPEG20] the hemolysis [1, 3] was 11.4%.

`CC[C@H](C)[C@H](N)C(=O)N[C@@H](C)C(=O)N[C@@H](CC(C)C)C(=O)N[C@H](C(=O)N[C@@H](CC(C)C)C(=O)N[C@@H](CCC(=O)O)C(=O)N1CCC[C@H]1C(=O)N[C@H](C(=O)N[C@@H](CS)C(=O)N[C@@H](CS)C(=O)N[C@@H](CCC(N)=O)C(=O)N[C@@H](CCC(=O)O)C(=O)N[C@@H](CCCNC(=N)N)C(=O)N[C@@H](C)C(=O)N[C@@H](C)C(=O)O)[C@@H](C)CC)[C@@H](C)CC` [PA] showed a hemolysis ([1]; mean of triplicate, standardized to water (soluble) or DMSO (insoluble)) of 3.15%.

With `CC[C@H](C)[C@H](N)C(=O)N[C@@H](C)C(=O)N[C@@H](CC(C)C)C(=O)N[C@H](C(=O)N[C@@H](CC(C)C)C(=O)N(C)CC(=O)N1CCC[C@H]1C(=O)N[C@H](C(=O)N(C)CC(=O)N[C@@H](CS)C(=O)N[C@@H](CCC(N)=O)C(=O)N[C@@H](CCC(=O)O)C(=O)N[C@@H](CCCNC(=N)N)C(=O)N[C@@H](C)C(=O)N[C@@H](C)C(=O)O)[C@@H](C)CC)[C@@H](C)CC` [Peptide E6SarC9Sar, IALIL(Sar)PI(Sar)CQERAA] (H-IALIL[Sar]PI[Sar]CQERAA-OH) the Solubility in water [2] was “Yes”.

With `CC[C@H](C)[C@H](N)C(=O)N[C@@H](C)C(=O)N[C@@H](CC(C)C)C(=O)N[C@H](C(=O)N[C@@H](CC(C)C)C(=O)N(C)CC(=O)N(C)CC(=O)N[C@H](C(=O)N[C@@H](CS)C(=O)N[C@@H](CS)C(=O)N[C@@H](CCC(N)=O)C(=O)N[C@@H](CCC(=O)O)C(=O)N[C@@H](CCCNC(=N)N)C(=O)N[C@@H](C)C(=O)N[C@@H](C)C(=O)O)[C@@H](C)CC)[C@@H](C)CC` [Peptide E6SarP7Sar] (H-IALIL[Sar][Sar]ICCQERAA-OH; N-terminus and C-terminus assumed) the Solubility in water [2] was “Yes”.

In the case of `CC[C@H](C)[C@H](N)C(=O)N[C@@H](C)C(=O)N[C@@H](CC(C)C)C(=O)N[C@H](C(=O)N[C@@H](CC(C)C)C(=O)N[C@@H](CCC(=O)O)C(=O)N1CCC[C@H]1C(=O)N[C@H](C(=O)N(C)CC(=O)N[C@@H](CS)C(=O)N(C)CC(=O)N[C@@H](CCC(=O)O)C(=O)N[C@@H](CCCNC(=N)N)C(=O)N[C@@H](C)C(=O)N[C@@H](C)C(=O)O)[C@@H](C)CC)[C@@H](C)CC` [Peptide Q11SarC9Sar] (H-IALILEPI[Sar]C[Sar]ERAA-OH), the Solubility in water [2] was “Yes”.

With `CC[C@H](C)[C@H](N)C(=O)N[C@@H](C)C(=O)N[C@@H](CC(C)C)C(=O)N[C@H](C(=O)N[C@@H](CC(C)C)C(=O)N[C@@H](CCC(=O)O)C(=O)N(C)CC(=O)N[C@H](C(=O)N[C@@H](CS)C(=O)N[C@@H](CS)C(=O)N(C)CC(=O)N[C@@H](CCC(=O)O)C(=O)N[C@@H](CCCNC(=N)N)C(=O)N[C@@H](C)C(=O)N[C@@H](C)C(=O)O)[C@@H](C)CC)[C@@H](C)CC` [Peptide Q11SarP7Sar, IALILE(Sar)ICC(Sar)ERAA] (H-IALILE[Sar]ICC[Sar]ERAA-OH; N-terminus and C-terminus assumed) the Solubility in water [2] was “Yes”.

In the case of `CC[C@H](C)[C@H](N)C(=O)N[C@@H](C)C(=O)N[C@@H](CC(C)C)C(=O)N[C@H](C(=O)N[C@@H](CC(C)C)C(=O)N[C@@H](CCC(=O)O)C(=O)N1CCC[C@H]1C(=O)N[C@H](C(=O)N(C)CC(=O)N[C@@H](CS)C(=O)N[C@@H](CCC(N)=O)C(=O)N[C@@H](CCC(=O)O)C(=O)N(C)CC(=O)N[C@@H](C)C(=O)N[C@@H](C)C(=O)O)[C@@H](C)CC)[C@@H](C)CC` [Peptide R13SarC9Sar] (H-IALILEPI[Sar]CQE[Sar]AA-OH), the Solubility in water [2] was “No”.

With `CC[C@H](C)[C@H](N)C(=O)N[C@@H](C)C(=O)N[C@@H](CC(C)C)C(=O)N[C@H](C(=O)N[C@@H](CC(C)C)C(=O)N[C@@H](CCC(=O)O)C(=O)N(C)CC(=O)N[C@H](C(=O)N[C@@H](CS)C(=O)N[C@@H](CS)C(=O)N[C@@H](CCC(N)=O)C(=O)N[C@@H](CCC(=O)O)C(=O)N(C)CC(=O)N[C@@H](C)C(=O)N[C@@H](C)C(=O)O)[C@@H](C)CC)[C@@H](C)CC` [Peptide R13SarP7Sar, IALILE(Sar)ICCQE(Sar)AA] (H-IALILE[Sar]ICCQE[Sar]AA-OH) the Solubility in water [2] was “No”.
